Columns and labels:
mPTPB = mPTPB (Mycobacterium tuberculosis, UniProt I6WXK4); test: mPTPB catalyzed para-nitrophenyl phosphate hydrolysis inhibition; type: biochemical; settings: for activity at 100 μM: 100 μM compound
[1] = system: mPTPB transfected Raw264.7 cells; type: cell-based; settings: 10 μM
human PTPs = test: Specificity for mPTPB over panel of human PTPs; type: biochemical; settings: mPTPB versus PTP1B, SHP2, SHP1, PTP-Meg2, CD45, PTPε, VHR, Laforin

mPTPB, sequence (I6WXK4 whole entry, looked up): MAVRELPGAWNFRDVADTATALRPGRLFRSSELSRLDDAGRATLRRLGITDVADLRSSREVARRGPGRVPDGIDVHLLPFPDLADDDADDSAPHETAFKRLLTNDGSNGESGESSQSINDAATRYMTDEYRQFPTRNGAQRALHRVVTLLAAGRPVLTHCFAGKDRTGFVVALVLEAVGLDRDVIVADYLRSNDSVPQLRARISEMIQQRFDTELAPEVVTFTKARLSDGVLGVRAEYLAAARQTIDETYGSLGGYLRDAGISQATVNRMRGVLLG

Compound: O=C(O)c1cc2sc(Nc3ccccc3)nc2cc1O [11a]
- fold more active than 11b (mPTPB): 3 fold
- effects on Erk1/2 and Akt phosphorylation [1]: has no such effects

Compound: O=C(O)c1cc2sc(Nc3cccc(Br)c3)nc2cc1O [11h]
- Ki (mPTPB): 2.2 ± 0.1 µM
- fold increase in potency in comparison to 11a (mPTPB): 12 fold
- mode of inhibition (mPTPB; mPTPB, against pNPP): noncompetitive inhibitor
- fold improvement of salicylic acid mPTPB inhibitory activity (mPTPB; mPTPB, versus salicylic acid): 27,500 fold
- Akt phosphorylation ([1]; 5 μM, dose dependent): decreased
- Erk1/2 phosphorylation ([1]; 5 μM, dose dependent): increased
- fold preference for mPTPB against human PTPs (human PTPs): over 20 fold

Compound: O=C(O)c1cc2[nH]c(=O)oc2cc1O [compound 6]
- activity at 100 μM (mPTPB; mPTPB): did not exhibit activity

Compound: O=C1COc2cc(O)c(C(=O)O)cc2N1 [compound 7]
- activity at 100 μM (mPTPB; mPTPB): did not exhibit activity

Compound: O=C(O)CN1CC(=O)Oc2cc(O)c(C(=O)O)cc21 [compound 8]
- activity at 100 μM (mPTPB; mPTPB): did not exhibit activity

Compound: O=C(O)c1cc2nc(-c3ccccc3)oc2cc1O [compound 9]
- IC50 (mPTPB): 20 to 30 µM

Compound: O=C(O)c1cc2[nH]c(-c3ccccc3)nc2cc1O [compound 10]
- IC50 (mPTPB): 20 to 30 µM

Source: publication PMC4259018 (MedChemComm, 2014)
